Structures can show the parent of a compound that is named as a salt.
These compounds were tested against human PAI-1 (Homo sapiens, UniProt P05121) (assay: Measurement of PAI-1 inhibitory activity of compound group 1 (t-PA, Spectrozyme t-PA chromogenic substrate)). Conditions: read-out: PAI-1 activity %.
Chain of human PAI-1 (P05121 24-402): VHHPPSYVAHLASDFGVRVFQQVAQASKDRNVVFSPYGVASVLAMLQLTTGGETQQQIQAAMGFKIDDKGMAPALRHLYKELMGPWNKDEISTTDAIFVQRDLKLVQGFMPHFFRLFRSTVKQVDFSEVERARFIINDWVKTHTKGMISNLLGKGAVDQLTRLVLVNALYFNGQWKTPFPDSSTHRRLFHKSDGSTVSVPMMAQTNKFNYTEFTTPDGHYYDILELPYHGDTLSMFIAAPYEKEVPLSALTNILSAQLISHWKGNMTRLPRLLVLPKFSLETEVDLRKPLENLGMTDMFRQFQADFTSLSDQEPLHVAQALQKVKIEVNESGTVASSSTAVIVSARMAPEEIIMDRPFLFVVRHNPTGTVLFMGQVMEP
Procedure: Subsequently, human-derived tissue plasminogen activator (t-PA) (manufactured by American Diagnostica, Inc. (USA); the same applies hereinafter) adjusted to 0.05 pmol/μL was added thereto, and the mixture was further incubated at 37° C. for 60 minutes. Then, 0.25 mM of Spectrozyme t-PA synthetic substrate (manufactured by American Diagnostica, Inc. (USA); the same applies hereinafter), which is a chromogenic substrate, was added. The final mixture contained 50 mM Tris-HCl (pH 8), 150 mM NaCl, 1% DMSO, 0.1% PEG-6000, 0.2 mM CHAPS, 5 nM PAI-1, 2 nM t-PA, 0.2 mM Spectrozyme t-PA synthetic substrate, and each compound (10 μM or 2.5 μM).
Free radical p-nitroaniline removed from the chromogenic substrate (Spectrozyme t-PA) by t-PA action was measured using a spectrophotometer at an absorbance of 405 nm at 20-minute intervals, for 120 minutes.

SMILES | activity at 2.5 µM [%] | activity at 10 µM [%]
O=C(COc1ccc(C2CCCCC2)cc1)Nc1ccc(Cl)cc1C(=O)O [Known compound (3), 5-chloro-2-{[(4-cyclohexylphenoxy)acetyl]amino} benzoic acid, reference compound] | 36.3 | 0.3
O=C(Nc1ccc(Cl)cc1C(=O)O)c1cccc(C2CCCCC2)c1 [Example 80, 5-chloro-2-{[(3-cyclohexylphenyl)carbonyl]amino}benzoic acid] | 45.5 | 0
O=C(COc1ccc(C23CC4CC(CC(C4)C2)C3)cc1)Nc1ccc(-c2ccoc2)cc1C(=O)O [Example 47, 2-({[4-(adamantan-1-yl)phenoxy]acetyl}amino)-5-(furan-3-yl)benzoic acid] | 9.7 | 0.6
C#Cc1ccc(NC(=O)c2ccc(C3CCCCC3)cc2)c(C(=O)O)c1 [Example 95, 2-{[(4-cyclohexylphenyl)carbonyl]amino}-5-ethynylbenzoic acid] | 80.5 | 0.3
O=C(C#Cc1ccc(C23CC4CC(CC(C4)C2)C3)cc1)Nc1ccc(Cl)cc1C(=O)O [Example 94, 2-({3-[4-(adamantan-1-yl)phenyl]prop-2-ynoyl}amino)-5-chlorobenzoic acid] | 3.5 | 7.4
O=C(Nc1ccc(CCC2CCCCC2)cc1C(=O)O)c1ccc(C2CCCCC2)cc1 [Example 93, 5-(2-cyclohexylethyl)-2-{[(4-cyclohexylphenyl)carbonyl]amino}benzoic acid] | 0 | 0
O=C(CCCOc1ccc(C23CC4CC(CC(C4)C2)C3)cc1)Nc1ccc(Cl)cc1C(=O)O [Example 55, 2-({4-[4-(adamantan-1-yl)phenoxy]butanoyl}amino)-5-chlorobenzoic acid] | 29.8 | 1.1
O=C(Nc1ccc(Cl)cc1-c1nnn[nH]1)c1cccc(-c2cccc3cccnc23)c1 [Example 102, N-[4-chloro-2-(1H-tetrazol-5-yl)phenyl]-3-(quinolin-8-yl)benzamide] | 91.3 | 1.5

Results, then the compound that gave them:

activity at 2.5 µM [%] | activity at 10 µM [%] | SMILES
94.8 | 2.5 | O=C(O)c1cc(Cl)ccc1NC(=O)c1cccc2c1Cc1ccccc1-2 [Example 38, 5-chloro-2-[(9H-fluoren-1-ylcarbonyl)amino]benzoic acid]
100 | 3.7 | O=C(Nc1ccc(Cl)cc1C(=O)O)c1ccc(-n2cccc2)cc1 [Salt of Known compound (7), 5-chloro-2-({[4-(1H-pyrrol-1-yl)phenyl]carbonyl}amino)benzoic acid hydrochloride, reference compound]
93.2 | 24.3 | O=C(COc1ccc(-c2ccoc2)cc1)Nc1ccc(Cl)cc1C(=O)O [Example 29, 5-chloro-2-({[4-(furan-3-yl)phenoxy]acetyl}amino)benzoic acid]
44.7 | 0.6 | O=C(Nc1ccc(Cl)cc1C(=O)O)c1ccc(C2CCCCC2)cc1 [Example 69, 5-chloro-2-{[(4-cyclohexylphenyl)carbonyl]amino}benzoic acid]
92.9 | 30.6 | O=C(COC(c1ccccc1)c1ccccc1)Nc1ccc(Cl)cc1C(=O)O [Example 76, 5-chloro-2-{[(diphenylmethoxy)acetyl]amino}benzoic acid]
19.3 | 1.7 | O=C(Nc1ccc(Cl)cc1C(=O)O)c1ccc(C23CC4CC(CC(C4)C2)C3)cc1 [Example 40, 2-({[4-(adamantan-1-yl)phenyl]carbonyl}amino)-5-chlorobenzoic acid]
72.4 | 2.5 | O=C(COc1ccc(-c2ccccc2)cc1)Nc1ccc(Cl)cc1C(=O)O [Example 19, 2-{[(biphenyl-4-yloxy)acetyl]amino}-5-chlorobenzoic acid]
82.2 | 31.2 | O=C(CNC(c1ccccc1)c1ccccc1)Nc1ccc(Cl)cc1C(=O)O [Example 73, 5-chloro-2-{[N-(diphenylmethyl)glycyl]amino}benzoic acid]

From patent publication US10092537B2, “Use for PAI-1 inhibitor” (RENASCIENCE CO., LTD., priority 2013, dated 2018)
